From US7294635B2 (Portola Pharmaceuticals, Inc., priority 2003, dated 2007) come the findings set out here.

The test system of this test is ADP-induced human platelet aggregation. Kind of test: Inhibition of ADP-mediated platelet aggregation in vitro using platelet-rich plasma (PRP assay). It counts as cell-based. Conditions: 5 min, read-out: Activity in the PRP assay. The method, then:
This Example Provides an Assay for the Inhibition of ADP-Mediated Platelet Aggregation In Vitro Using Platelet-Rich Plasma (PRP)
Platelet-rich plasma (PRP) is prepared by centrifugation at 160×g for 20 minutes at room temperature. PRP is collected, and the platelet concentration is determined using a Coulter counter or hemocytometer (platelet concentration should be 2-4×10^8 platelets per mL).
Inhibition of ADP-dependent aggregation is preferably determined in 96-well flat-bottom microtiter plates using a microtiter plate shaker and plate reader similar to the procedure described by Frantantoni et al., Am. J. Clin. Pathol. […] All steps are performed at room temperature. The total reaction volume of 0.2 mL/well includes: PRP (˜6×10^7 total platelets in the presence of plasma), serial dilutions of test compounds (buffer for control wells) in 0.6% DMSO. After about 5 minutes preincubation at room temperature, ADP is added to a final concentration of 2 μM which induces submaximal aggregation. Buffer is added instead of ADP to one set of control wells (ADP-control). The OD of the samples is then determined at 650 nm using a microtiter plate reader (Softmax, Molecular Devices, Menlo Park, Calif.) resulting in the 0 minute reading. The plates are then agitated for 5 min on a microtiter plate shaker and the 5 minute reading is obtained in the plate reader. Aggregation is calculated from the decrease of OD at 650 nm at t=5 minutes compared to t=0 minutes and is expressed as % of the decrease in the ADP control samples after correcting for changes in the unaggregated control samples.

Setting [1] is: human platelet-rich plasma, 2 μM ADP, 96-well microtiter, OD 650 nm at 5 min.

pIC50: −log10 of the molar value. Like-named read-outs stand apart in the source and are kept apart here.

On to `O=C(Nc1ccc(-n2ccc3cc(NCC(F)(F)F)c(F)cc3c2=O)cc1)NS(=O)(=O)c1ccc(Cl)s1` [Example 21, 5-chloro-N-[({4-[7-fluoro-1-oxo-6-[(2,2,2-trifluoroethyl)amino]isoquinolin-2(1H)-yl]phenyl}amino)carbonyl]thiophene-2-sulfonamide], for which, under setting [1], the pIC50 is 4.52 to 5.00.
`CNc1cc2ccn(-c3cnc(NC(=O)NS(=O)(=O)c4ccc(Cl)s4)nc3)c(=O)c2cc1F` [Example 61, 5-chloro-N-[({5-[7-fluoro-6-(methylamino)-1-oxoisoquinolin-2(1H)-yl]pyrimidin-2-yl}amino)carbonyl]thiophene-2-sulfonamide]: under setting [1], the pIC50 is over 5.00.
`CCc1cc(-n2ccc3cc(NC)c(F)cc3c2=O)ccc1NC(=O)NS(=O)(=O)c1ccc(Cl)s1` [Example 81, 5-chloro-N-[({2-ethyl-4-[7-fluoro-6-(methylamino)-1-oxoisoquinolin-2(1H)-yl]phenyl}amino)carbonyl]thiophene-2-sulfonamide]: under setting [1], the pIC50 was over 5.00.
As for `CNc1cc2ccn(-c3ccc(NC(=O)NS(=O)(=O)c4ccc(Cl)s4)c(S(C)(=O)=O)c3)c(=O)c2cc1F` [Example 102, 5-chloro-N-({[4-[7-fluoro-6-(methylamino)-1-oxoisoquinolin-2(1H)-yl]-2-(methylsulfonyl)phenyl]amino}carbonyl)thiophene-2-sulfonamide], under setting [1], the pIC50 was under 4.52.
On the same count and under the same terms, in the case of `CNc1cc2ccn(-c3ccc(NC(=O)NS(=O)(=O)c4ccc(Cl)s4)cc3C(C)O)c(=O)c2cc1F` (stereo not shown) [Example 74, 5-chloro-N-({[4-[7-fluoro-6-(methylamino)-1-oxoisoquinolin-2(1H)-yl]-3-(1-hydroxyethyl)phenyl]amino}carbonyl)thiophene-2-sulfonamide] it was under 4.52; in that of `CNc1cc2ccn(-c3cc(C)c(NC(=O)NS(=O)(=O)c4ccc(Cl)s4)cn3)c(=O)c2cc1F` [Example 56, 5-chloro-N-[({6-[7-fluoro-6-(methylamino)-1-oxoisoquinolin-2(1H)-yl]-4-methylpyridin-3-yl}amino)carbonyl]thiophene-2-sulfonamide], over 5.00; in that of `CNc1cc2ccn(-c3ccc(NC(=O)NS(=O)(=O)c4ccc(Cl)s4)c(OCC4CC4)c3)c(=O)c2cc1F` [Example 86, 5-chloro-N-[({2-(cyclopropylmethoxy)-4-[7-fluoro-6-(methylamino)-1-oxoisoquinolin-2(1H)-yl]phenyl}amino)carbonyl]thiophene-2-sulfonamide], over 5.00.
Turning to `CNc1cc2ccn(-c3ccc(NC(=O)NS(=O)(=O)c4ccc(Cl)s4)c(C(F)F)c3)c(=O)c2cc1F` [Example 85, 5-chloro-N-[({2-(difluoromethyl)-4-[7-fluoro-6-(methylamino)-1-oxoisoquinolin-2(1H)-yl]phenyl}amino)carbonyl]thiophene-2-sulfonamide], the pIC50 under setting [1] was over 5.00.
In the case of `CNc1cc2ccn(-c3ccc(NC(=O)NS(=O)(=O)c4ccc(Cl)s4)cc3F)c(=O)c2cc1F` [Example 49, 5-chloro-N-[({3-fluoro-4-[7-fluoro-6-(methylamino)-1-oxoisoquinolin-2(1H)-yl]phenyl}amino)carbonyl]thiophene-2-sulfonamide], the pIC50 under setting [1] is over 5.00.
Take `CNc1cc2ccn(-c3ccc(NC(=O)NS(=O)(=O)c4ccc(Cl)s4)nc3)c(=O)c2cc1F` [Example 59, 5-chloro-N-[({5-[7-fluoro-6-(methylamino)-1-oxoisoquinolin-2(1H)-yl]pyridin-2-yl}amino)carbonyl]thiophene-2-sulfonamide]: the pIC50 under setting [1] was over 5.00.
Consider `CCNc1cc2ccn(-c3ccc(NC(=O)NS(=O)(=O)c4ccc(Cl)s4)cc3)c(=O)c2cc1F` [Example 19, 5-chloro-N-[({4-[6-(ethylamino)-7-fluoro-1-oxoisoquinolin-2(1H)-yl]phenyl}amino)carbonyl]thiophene-2-sulfonamide], for which the pIC50 (Homo sapiens, Platelet) was over 5.00.
`CNc1cc2ccn(-c3ccc(NC(=O)NS(=O)(=O)c4ccc(Cl)s4)cc3C)c(=O)c2cc1F` [Example 52, 5-chloro-N-[({4-[7-fluoro-6-(methylamino)-1-oxoisoquinolin-2(1H)-yl]-3-methylphenyl}amino)carbonyl]thiophene-2-sulfonamide]: under setting [1], the pIC50 was over 5.00.
Take `CNc1cc2ccn(-c3ccc(NC(=O)NS(=O)(=O)c4ccc(Cl)s4)c(C(=O)O)c3)c(=O)c2cc1F` [Example 99, 2-[({[(5-chlorothien-2-yl)sulfonyl]amino}carbonyl)amino]-5-[7-fluoro-6-(methylamino)-1-oxoisoquinolin-2(1H)-yl]benzoic acid]: under setting [1], the pIC50 is over 5.00.
Same read-out and setting: in the case of `CNc1cc2ccn(-c3ccc(NC(=O)NS(=O)(=O)c4ccc(OC)s4)cc3)c(=O)c2cc1F` [Example 34] it was over 5.00; in that of `CNc1cc2ccn(-c3ccc(NC(=O)NS(=O)(=O)c4ccc(Cl)s4)c(OCCO)c3)c(=O)c2cc1F` [Example 83, 5-chloro-N-({[4-[7-fluoro-6-(methylamino)-1-oxoisoquinolin-2(1H)-yl]-2-(2-hydroxyethoxy)phenyl]amino}carbonyl)thiophene-2-sulfonamide], over 5.00.
Consider `CNc1cc2ccn(-c3ccc(NC(=O)NS(=O)(=O)c4ccc(Cl)s4)c(C(=O)OC)c3)c(=O)c2cc1F` [Example 98, methyl 2-[({[(5-chlorothien-2-yl)sulfonyl]amino}carbonyl)amino]-5-[7-fluoro-6-(methylamino)-1-oxoisoquinolin-2(1H)-yl]benzoate], for which the pIC50 under setting [1] is over 5.00.
On to `O=C(Nc1ccc(-n2ccc3cc(NC4CC4)c(F)cc3c2=O)cc1)NS(=O)(=O)c1ccc(Cl)s1` [Example 13, 5-chloro-N-[({4-[6-(cyclopropylamino)-7-fluoro-1-oxoisoquinolin-2(1H)-yl]phenyl}amino)carbonyl]thiophene-2-sulfonamide], for which the pIC50 under setting [1] is 4.52 to 5.00.
Same read-out and setting: with `CNc1cc2ccn(-c3ccc(NC(=O)NS(=O)(=O)c4ccc(Cl)s4)c(O)c3)c(=O)c2cc1F` [Example 77, 5-chloro-N-[({4-[7-fluoro-6-(methylamino)-1-oxoisoquinolin-2(1H)-yl]-2-hydroxyphenyl}amino)carbonyl]thiophene-2-sulfonamide] the figure was over 5.00; with `CNc1cc2ccn(-c3ccc(NC(=O)NS(=O)(=O)c4ccc(Br)s4)cc3)c(=O)c2cc1F` [Example 28, 5-bromo-N-[({4-[7-fluoro-6-(methylamino)-1-oxoisoquinolin-2(1H)-yl]phenyl}amino)carbonyl]thiophene-2-sulfonamide], over 5.00; with `CNc1cc2ccn(-c3ccc(NC(=O)NS(=O)(=O)c4ccc(Cl)s4)c(OC)c3)c(=O)c2cc1F` [Example 75, 5-chloro-N-[({4-[7-fluoro-6-(methylamino)-1-oxoisoquinolin-2(1H)-yl]-2-methoxyphenyl}amino)carbonyl]thiophene-2-sulfonamide], over 5.00.
On the same count and under the same terms, in the case of `CNc1cc2ccn(-c3ccc(NC(=O)NS(=O)(=O)c4cc(C(F)F)cs4)cc3)c(=O)c2cc1F` [Example 39] it was 4.52 to 5.00; in that of `C#Cc1ccc(S(=O)(=O)NC(=O)Nc2ccc(-n3ccc4cc(NC)c(F)cc4c3=O)cc2)s1` [Example 35], over 5.00; in that of `CNc1cc2ccn(-c3ccc(NC(=O)NS(=O)(=O)c4ccc(Cl)s4)c(OC(F)(F)F)c3)c(=O)c2cc1F` [Example 87, 5-chloro-N-({[4-[7-fluoro-6-(methylamino)-1-oxoisoquinolin-2(1H)-yl]-2-(trifluoromethoxy)phenyl]amino}carbonyl)thiophene-2-sulfonamide], over 5.00.
Consider `O=C(Nc1ccc(-n2ccc3cc(NCCF)c(F)cc3c2=O)cc1)NS(=O)(=O)c1ccc(Cl)s1` [Example 20, 5-chloro-N-[({4-[7-fluoro-6-[(2-fluoroethyl)amino]-1-oxoisoquinolin-2(1H)-yl]phenyl}amino)carbonyl]thiophene-2-sulfonamide], for which the pIC50 under setting [1] is over 5.00.
Regarding `CNc1cc2ccn(-c3ccc(NC(=O)NS(=O)(=O)c4ccc(Cl)s4)c(C(C)C)c3)c(=O)c2cc1F` [Example 92, 5-chloro-N-[({4-[7-fluoro-6-(methylamino)-1-oxoisoquinolin-2(1H)-yl]-2-isopropylphenyl}amino)carbonyl]thiophene-2-sulfonamide], the pIC50 under setting [1] was 4.52 to 5.00.
As to `CNc1cc2ccn(-c3ccc(NC(=O)NS(=O)(=O)c4ccc(Cl)s4)cc3Br)c(=O)c2cc1F` [Example 51, N-[({3-bromo-4-[7-fluoro-6-(methylamino)-1-oxoisoquinolin-2(1H)-yl]phenyl}amino)carbonyl]-5-chlorothiophene-2-sulfonamide], under setting [1], the pIC50 was over 5.00.
Turning to `O=CNc1cc2ccn(-c3ccc(NC(=O)NS(=O)(=O)c4ccc(Cl)s4)cc3)c(=O)c2cc1F` [Example 14, 5-chloro-N-[({4-[7-fluoro-6-(formylamino)-1-oxoisoquinolin-2(1H)-yl]phenyl}amino)carbonyl]thiophene-2-sulfonamide], the pIC50 under setting [1] was under 4.52.
With `CNc1cc2ccn(-c3ccc(NC(=O)NS(=O)(=O)c4ccc(Cl)s4)c(OCCOC)c3)c(=O)c2cc1F` [Example 91, 5-chloro-N-({[4-[7-fluoro-6-(methylamino)-1-oxoisoquinolin-2(1H)-yl]-2-(2-methoxyethoxy)phenyl]amino}carbonyl)thiophene-2-sulfonamide], under setting [1], the pIC50 is over 5.00.
